Series [1] is described as follows: Cell toxicity (CC50) in EV68 assay. Particulars: EV68 CC50.
Series [2] is described as follows: Caco-2 permeability assay. The conditions noted are these: human, read-out: Caco2 Papp × 1e−6 cm/s. The series is classed as in vitro ADME. The method, then: Compounds of interest were tested in a variety of cell-based assays for antiviral activity.
The target of a further series is T1, PI4KIIIbeta (Bos taurus, UniProt O02810).
T1 construct: made in house; host or cells: COS-7 cells, transient transfection, anti-HA immunoprecipitate on protein G Sepharose beads
T1 sequence (O02810 whole entry): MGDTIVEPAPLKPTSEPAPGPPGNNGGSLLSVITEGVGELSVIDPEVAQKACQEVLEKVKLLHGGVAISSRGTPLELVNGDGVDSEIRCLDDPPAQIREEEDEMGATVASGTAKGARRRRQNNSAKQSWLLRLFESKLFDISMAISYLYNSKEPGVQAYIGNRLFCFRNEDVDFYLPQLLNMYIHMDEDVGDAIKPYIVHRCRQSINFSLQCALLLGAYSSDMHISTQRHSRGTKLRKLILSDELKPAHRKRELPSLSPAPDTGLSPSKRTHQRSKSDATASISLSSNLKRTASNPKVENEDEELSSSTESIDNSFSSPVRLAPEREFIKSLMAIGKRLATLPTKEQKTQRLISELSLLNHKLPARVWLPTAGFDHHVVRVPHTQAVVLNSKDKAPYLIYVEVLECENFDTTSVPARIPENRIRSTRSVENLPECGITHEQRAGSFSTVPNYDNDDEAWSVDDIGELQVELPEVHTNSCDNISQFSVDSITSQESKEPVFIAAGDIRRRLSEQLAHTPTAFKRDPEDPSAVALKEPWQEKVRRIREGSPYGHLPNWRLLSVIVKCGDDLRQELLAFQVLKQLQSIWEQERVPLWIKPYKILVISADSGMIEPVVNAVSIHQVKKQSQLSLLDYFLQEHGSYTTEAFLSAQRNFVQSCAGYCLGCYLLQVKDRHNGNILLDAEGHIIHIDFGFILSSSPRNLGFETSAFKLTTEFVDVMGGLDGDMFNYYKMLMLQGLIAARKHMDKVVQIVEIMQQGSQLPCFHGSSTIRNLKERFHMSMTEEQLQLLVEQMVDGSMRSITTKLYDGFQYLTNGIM
Put plainly: PI-kinase assay, PI4KIIIbeta (Table 4). The series is classed as biochemical, bovine. The method, then:
(§1) PI-kinase assay: Compounds are tested in C.1.1. PT kinase assays as described by Shokat et al., “A membrane capture assay for lipid kinase activity.” Nat. Protoc. 2007; 2(10):2459-66.
(§2) General methods of materials: In the assays described here, p110α-p85 complex and p110γ were acquired from Millipore. Assays were performed with La-phosphatidylinositol (Avanti) as described in Knight et al. Nat Protoc. 2007; 2 (10):2459-66. Inhibitor series were prepared 10% DMSO as 5× stocks for the assay. Assays of HsVps34 were performed as described in Knight et al, except that the final assay buffer composition used was changed to 20 mM HEPES 7.5, 100 mM NaCl, 3 mM MgCl, 1 mg/mL PI and 44 nM hvps34 was used in the assay. […] COS-7 cells were cultured in 10 cm dishes and transfected at 70% confluence with 10 μg of plasmid DNA (HA-tagged bovine PI4KIIIβ. HA-tagged human PI4KIIIα) using Lipofectamine 2000 and 5 ml Opti-MEM following the manufacturer's instructions. After 5 hours the transfection medium was replaced with 10 ml complete DMEM. 36 hrs post transfection, cells were washed once with 5 ml PBS (pH 7.4) and lysed in 1 ml of lysis buffer (1) on ice. Lysates were collected by scraping and after 15 min they were centrifuged at 13.000 rpm for 10 min. To the lysates was added 200 gi of protein G Sepharose 4 fast flow beads that were prewashed with PBS and lysis buffer and 2 sg of anti-HA antibody. The tubes were then incubated overnight at 4 degrees C. in a tube rotator. The Sepharose beads in the lysate were washed twice with 150 mM NaCl in RIPA buffer, twice with RIPA buffer and once with kinase buffer (50 mM Tris/HCl, pH 7.5, 20 mM MgCl2, 1 mM EFTA, 1 mM PtdIns, 0.4% Triton X-100, 0.5 mg/mL BSA) and finally the beads were resuspended in 200 μL kinase buffer. Kinase reactions were run in a mixture of 45 μL of PI buffer (1 mM P1 in kinase buffer), 10 μL of immunoprecipitated beads, 2 µL of inhibitors (dissolved and diluted in DMSO) or DMSO and 5 μL of [γ-^32P]-ATP (1 mM and 2 μCi/tube). The immunoprecipitates in PI buffer were pre-incubated with the drugs for 20 min prior the initiation of kinase reaction by adding ATP and the reactions were carried out for 30 min in 15 ml polyproplyene tubes. Reactions were terminated by addition of 3 ml of CHCl3:CH3OH:HCl (200:100:0.75) followed by 0.6 ml of 0.61N HCl to induce phase separation. The mixtures were vortexed, centrifuged at 2000 rpm for 2 min and the upper phase was discarded. To the lower phase was added 1.5 ml of CHCl3:CH3OH:0.6N HCl (3:48:47) and the mixture vortexed and centrifuged at 2000 rpm for 2 ruin. The lower phase was then transferred to counting vials and evaporated. Samples were counted in a scintillation beta counter after adding 5 ml of Instafluor (Perkin-Elmer).
(§3) Selected compounds of Tables 1-3 were prepared and tested for inhibition activity in a variety of kinase assays.

The nature of series [3]: Microsomal stability, mouse liver microsomes. The series is classed as in vitro ADME.
The nature of series [4]: Cell toxicity (CC50) in HRV assay. The conditions noted are these: human, HRV CC50.
Series [5] in a line: Cell toxicity (CC50) in EV71 assay. The conditions noted are these: EV71 CC50.
A further series relates to cells (EV71 assay). The series can be described thus: Cell toxicity (CC50) in EV71 assay.
The subject of a further series is HCV. The series can be described thus: Anti-HCV assay (EC50). The series is classed as cell-based. The conditions noted are these: Hepatitis C virus, read-out: HCV EC50. The method, then: Anti-HCV assay: Anti-HCV assays are performed as described by Cho et al. “Identification of a class of HCV inhibitors directed against the nonstructural protein NS4B.” Sci. Transl. Med. 2011; 2(15):15ra6.

The test system of the next series is EV71. Put plainly: EV71 antiviral assay (EC50). In kind it is cell-based, Enterovirus 71. The conditions noted are these: Enterovirus A, EV71.
The next series deals with T2, PI4KIIIalpha (Homo sapiens, UniProt P42356).
T2 construct: made in house; host or cells: COS-7 cells, transient transfection, anti-HA immunoprecipitate on protein G Sepharose beads
T2 sequence (P42356 whole entry): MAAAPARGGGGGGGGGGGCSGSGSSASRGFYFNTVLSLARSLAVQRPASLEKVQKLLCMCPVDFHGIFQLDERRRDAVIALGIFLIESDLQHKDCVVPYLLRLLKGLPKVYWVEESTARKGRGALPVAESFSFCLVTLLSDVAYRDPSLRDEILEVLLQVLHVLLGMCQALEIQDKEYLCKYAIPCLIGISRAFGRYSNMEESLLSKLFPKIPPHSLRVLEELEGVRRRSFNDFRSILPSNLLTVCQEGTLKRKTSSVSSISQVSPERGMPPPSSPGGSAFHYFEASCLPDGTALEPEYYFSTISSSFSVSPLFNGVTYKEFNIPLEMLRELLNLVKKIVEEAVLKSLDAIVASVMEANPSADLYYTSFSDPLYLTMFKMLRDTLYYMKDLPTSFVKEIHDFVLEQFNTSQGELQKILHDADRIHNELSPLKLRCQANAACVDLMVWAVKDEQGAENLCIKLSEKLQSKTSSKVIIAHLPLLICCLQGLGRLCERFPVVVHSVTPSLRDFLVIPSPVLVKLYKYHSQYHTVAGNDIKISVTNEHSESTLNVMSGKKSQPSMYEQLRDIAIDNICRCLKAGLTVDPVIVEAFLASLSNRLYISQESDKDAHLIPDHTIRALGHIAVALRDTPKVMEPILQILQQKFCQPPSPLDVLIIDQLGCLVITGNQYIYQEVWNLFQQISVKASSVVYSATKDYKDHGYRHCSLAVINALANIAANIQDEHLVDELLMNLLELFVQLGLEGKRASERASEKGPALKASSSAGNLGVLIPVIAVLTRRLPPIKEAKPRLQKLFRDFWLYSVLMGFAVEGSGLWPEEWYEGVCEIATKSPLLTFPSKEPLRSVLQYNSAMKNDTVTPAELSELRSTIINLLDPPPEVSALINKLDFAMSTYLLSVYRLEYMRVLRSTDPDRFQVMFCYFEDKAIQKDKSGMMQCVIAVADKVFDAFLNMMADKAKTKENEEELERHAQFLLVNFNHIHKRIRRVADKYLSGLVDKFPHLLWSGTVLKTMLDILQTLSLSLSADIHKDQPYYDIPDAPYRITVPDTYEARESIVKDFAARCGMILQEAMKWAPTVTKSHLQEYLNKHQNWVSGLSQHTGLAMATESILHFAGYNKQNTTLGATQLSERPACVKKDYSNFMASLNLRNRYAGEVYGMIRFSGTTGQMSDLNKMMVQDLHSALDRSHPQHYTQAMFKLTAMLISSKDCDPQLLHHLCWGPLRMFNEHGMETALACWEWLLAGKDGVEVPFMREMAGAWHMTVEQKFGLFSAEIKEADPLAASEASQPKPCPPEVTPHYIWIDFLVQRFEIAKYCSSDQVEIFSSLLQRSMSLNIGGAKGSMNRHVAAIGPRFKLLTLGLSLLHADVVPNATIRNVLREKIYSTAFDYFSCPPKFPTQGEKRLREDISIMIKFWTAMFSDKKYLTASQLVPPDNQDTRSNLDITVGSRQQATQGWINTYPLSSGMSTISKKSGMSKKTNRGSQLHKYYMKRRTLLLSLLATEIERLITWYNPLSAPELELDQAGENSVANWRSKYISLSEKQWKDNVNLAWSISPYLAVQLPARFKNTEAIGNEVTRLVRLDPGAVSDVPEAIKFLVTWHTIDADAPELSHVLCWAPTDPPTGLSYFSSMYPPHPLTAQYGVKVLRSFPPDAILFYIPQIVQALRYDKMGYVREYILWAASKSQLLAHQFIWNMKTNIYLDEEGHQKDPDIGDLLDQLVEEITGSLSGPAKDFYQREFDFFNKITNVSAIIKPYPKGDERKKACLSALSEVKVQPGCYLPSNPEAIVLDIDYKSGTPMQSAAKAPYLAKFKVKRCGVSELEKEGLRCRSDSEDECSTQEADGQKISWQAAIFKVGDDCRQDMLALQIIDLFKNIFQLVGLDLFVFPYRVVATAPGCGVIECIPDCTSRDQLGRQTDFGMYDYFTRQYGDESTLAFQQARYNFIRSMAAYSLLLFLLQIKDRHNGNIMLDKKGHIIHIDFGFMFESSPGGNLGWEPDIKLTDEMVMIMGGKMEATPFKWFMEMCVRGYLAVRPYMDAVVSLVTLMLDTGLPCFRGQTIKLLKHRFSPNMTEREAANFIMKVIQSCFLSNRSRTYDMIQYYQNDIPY
Put plainly: PI-kinase assay, PI4KIIIalpha (Table 4). In kind it is biochemical. The procedure: as §1, §2, §3

Series [6] can be described thus: Cell toxicity (CC50) in JC virus assay.
The subject of the next series is HRV. The series can be described thus: Rhinovirus antiviral assay (EC50). In kind it is cell-based. The conditions noted are these: Human rhinovirus sp.
The nature of series [7]: Microsomal stability, human liver microsomes. The conditions noted are these: for half-life: read-out: HLM/MLM (t ½ min): HLM. In kind it is in vitro ADME.
In a further series the test system is EV68. The series can be described thus: EV68 antiviral assay (EC50). The series is classed as cell-based.
Series [8] concerns JC virus (Polyomaviridae). Put plainly: JC virus antiviral assay (EC50). In kind it is cell-based. Particulars: JC polyomavirus.
For a further series, the system named is cells (EV68 assay). Put plainly: Cell toxicity (CC50) in EV68 assay.
Series [9] in a line: Cell toxicity (CC50) in HPV assay.
For a further series, the system named is HeLa S3 cells. Put plainly: Cell toxicity (CC50) in HRV assay. The conditions noted are these: human.
For series [10], the system named is Human HPV (Papillomaviridae). Put plainly: Human HPV antiviral assay (EC50). In kind it is cell-based, human papilloma virus. The conditions noted are these: Human papillomavirus, read-out: Human HPV (Papillomaviridae) EC50.
Series [11] is described as follows: Cell toxicity (CC50) in BK virus assay.
The test system of series [12] is BK virus (Polyomaviridae). The series can be described thus: BK virus antiviral assay (EC50). The conditions noted are these: Betapolyomavirus hominis. The series is classed as cell-based.
Series [13] concerns lung cancer cell lines. The series can be described thus: Migration and invasion in Boyden chambers. The series is classed as cell-based, human. Particulars: panel of lung cancer cell lines. The method, then: (§4) Human lung cancer cells (A549, H1299, H460, H23, H2122, and H3122) were cultured in RPMI 1640 containing 10% FBS. Cells were maintained at 37° C. in an incubator with a humidified atmosphere containing 5% CO2.
(§5) To assess the anti-cancer activity of exemplary PI4K antagonists, a panel of lung cancer cell lines annotated for the presence or absence of PI4K amplifications were treated with PI4K inhibitors (IN-9, TN-10, or compound B) that have greater than 1000-fold selectivity […] PI4KIIIβ over class I and class III PI3K family members. […] IC50 values were even lower with the presence of PI4K amplifications.
(§6) PI4KIIIβ is a target in human cancers, including lung adenocarcinoma. (FIG. 1A). PI4P concentrations in H2122 cells (dots) treated in triplicate (dots) with Compound B or vehicle dimethyl sulfoxide (DMS). (FIG. 1B) Relative densities of PI4-kinase-amplified (red) and -diploid (black) human lung adenocarcinoma cell lines determined by WST-1 assays after 5 days of Compound B treatment. Results expressed relative to the lowest dose, which was set at 100%. (FIG. 1B, right panel) Half maximal inhibitory (IC50) concentrations of compound B determined from FIG. 1B, left panel. (FIG. 1C) Migrated and invaded 1-23 human lung adenocarcinoma cells in Transwell chambers were photographed (images) and counted (bar graphs) after treatment with compound B. Results expressed relative to DMSO-treated cells, which were set at 1.0. (FIG. 1C, right panel). Colonies formed by H2122 human lung cancer cells in soft agarose (FIG. 1D) and on plastic (FIG. 1E) were photographed (images) and counted (bar graphs) after 7 days of treatment with the indicated doses of compound B or vehicle DMSO (0 M). Results expressed relative to DMSO control, which were set at 1.0. PI4-kinase inhibition leads to selective cytotoxicity for cancer cells (FIG. 1F).

For series [14], the system named is lung cancer cell lines. Put plainly: Colony formation in soft agar and on plastic. The conditions noted are these: panel of lung cancer cell lines. In kind it is cell-based, human. The procedure:
as §4, §5, §6

Series [15] has as its system lung cancer cell lines. The series can be described thus: Cell proliferation in monolayer culture (WST-1). In kind it is cell-based, human. The conditions noted are these: panel of lung cancer cell lines. The procedure: as §4, §5, §6
Series [16] has as its system lung cancer cell lines. The series can be described thus: PI4P levels in lung cancer cell lines. The series is classed as cell-based, human. Particulars: panel of lung cancer cell lines. The procedure:
as §4, §5, §6

The mark [17] stands for this setting: read-out: HLM/MLM (t ½ min): MLM.
Setting [18] is: with ritonavir (concentration not stated), + Ritonavir, read-out: HLM/MLM (t ½ min) + Ritonavir: MLM.

Where “and” joins values, the source holds several entries; their conditions need not be identical. Equal entries are not always repeated.

The source of these data is US20250326725A1, “PI4-Kinase Inhibitors and Methods of Using the Same” (The Board of Trustees of the Leland Stanford Junior …, priority 2019, published 2025).

As to `COc1ccc(-c2sc(NC(C)(C)c3ccccc3)nc2C)cc1S(=O)(=O)NC1CCN(C(C)=O)CC1` [Compound S-42], the 50% cytotoxic concentration (CC50) was 100 µM in series [1]; 100 µM in series [4]; 103 µM in [5]; 100 µM in the series with cells (EV71 assay); more than 150 µM in [6]. Besides, the Papp in series [2] stood at 14 ×10⁻⁶ cm/s. For the same compound, the IC50 on PI4KIIIbeta was less than 0.1 µM; against PI4KIIIalpha, more than 10 µM. Moreover, the figures for the half-life in series [3] (setting [17]), in [3] (setting [18]) and in series [7] were 14 min, 82 min and 10 min, respectively. Also, the concentration for a half-maximal effect (EC50) in the series on HCV was 0.0007 µM; in the series with EV71, 0.0003 µM; in the series on HRV, 0.0009 µM; with EV68 it was 0.0019 µM and 0.0016 µM; in [8], 8.1 µM. Further, in [7], the “HLM/MLM (t ½ min) + Ritonavir: HLM” value was 159 min.
For the compound `COc1ccc(-c2sc(NC(C)(C)c3ccccn3)nc2C)cc1S(=O)(=O)Nc1c(C)cccc1F` [Compound S-45], the CC50 in series [1] stood at 73.2 µM; in the series on cells (EV68 assay), 38 µM; in [9], 77 µM; with HeLa S3 cells, 52 µM; in [4], 66.2 µM; in series [5], 87.3 µM. The figures for the CC50 (in the series with cells (EV71 assay); in [6]) were 77 µM and more than 150 µM, respectively. Also, the IC50 against PI4KIIIbeta was less than 0.1 µM; at PI4KIIIalpha it was more than 10 µM. The figures for the half-life in series [3] (setting [17]), in [3] (setting [18]) and in [7] were 10 min, 67 min and 14 min, respectively. Besides, the EC50 was 0.0004 µM in the series with HCV; 0.0003 µM with EV71; 0.0005 µM in the series on HRV; 0.002 µM and 0.0029 µM in the series with EV68; 4.7 µM in series [8]; 5.3 µM in series [10]. Besides, in [7], the “HLM/MLM (t ½ min) + Ritonavir: HLM” value was found to be 159 min.
Turning to `Nc1ccn(C[C@@H](CO)OCP(=O)(O)O)c(=O)n1` [PC1, cidofovir, reference compound], the CC50 in [11] was more than 100 µM; in series [6] it was more than 150 µM. For the same compound, the values for the EC50 in series [12] and in series [8] were 0.31 µM and 29.5 µM, respectively.
`Nc1nc2c(ncn2CCOCP(=O)(O)O)c(=O)[nH]1` [PC2, 9-[2-(phosphono-methoxy)ethyl]guanine, reference compound] had a CC50 in [9] of more than 150 µM. In addition, in [10], the EC50 came to 2.8 µM.
Consider `COc1ccc(-c2sc(NC(=O)C3CCCC3)nc2C)cc1S(=O)(=O)Nc1ccc(O)cc1` [PI4KIIIbeta-IN-9], for which the “migration and invasion in Boyden chambers” value in the series with lung cancer cell lines [13] was “reduced”. In addition, the “colony formation in soft agar and on plastic” value in the series with lung cancer cell lines [14] was “reduced”. Besides, in the series with lung cancer cell lines [15], the “cell proliferation in monolayer culture” value is recorded as “reduced cell proliferation in monolayer culture”. Also, the PI4P levels entry with lung cancer cell lines [16] is on record as “decreased PI4P levels in a dose-dependent fashion”.
